From patent US6620779B2, “Method of enhancing the efficacy of anti-tumor agents” (Health Research Inc., priority 1999, dated 2003)
Entries after “also recorded” stand apart in the source; their conditions may differ.

Columns and labels:
[1] = system: human ovarian cancer xenografts (papillary serous adenocarcinoma of the ovary); test: Large gonadal fat pad (GFP) human ovarian cancer xenograft in SCID mice, single cisplatin dose, tumor growth; type: in vivo, CB 17-SCID/SCID mice; conditions: large GFP tumors; cisplatin 5 mg/kg ip day 0; EPO 20 units sc three times per week day −15 to +6; necropsy day 7
Method: To illustrate this embodiment, experiments were carried out in immunodeficient SCID mice bearing human ovarian cancer.
Eighty CB 17-SCID/SCID mice (Taconic Labs) were used. The animals were kept under sterile and light-controlled conditions. Portions of tumors from patients with recurrent stage IIIC, grade 3, papillary serous adenocarcinoma of the ovary were implanted and propagated in SCID mice by procedures well known to those skilled in the art. Briefly, xenografts were grown and passaged at least five times prior to the implantation of tumors into experimental animals. […]
Automated hematocrits were obtained from tail bleeds performed on three mice selected randomly from each group on days −15, −7, 0, and +7. […] Tumors were excised and measured in three dimensions with vernier calipers. Tumor volume was calculated as follows. […]
The percent growth of the tumor was calculated using the formula: […]
(§1) Percent tumor growth was calculated for each index day compared to day 0 and plotted over time. […] The growth curves developed in the smaller subcutaneous tumor group and the curves representing change in the hematocrit over time were analyzed by analysis of variance. […]

[2] = Automated hematocrits from tail bleeds of tumor-bearing SCID mice; type: in vivo, CB 17-SCID/SCID mice; parameters: Hematocrits: unit not given here; conditions: for Hematocrits: mice bearing small subcutaneous tumors
Method: Automated hematocrits were obtained from tail bleeds performed on three mice selected randomly from each group on days −15, −7, 0, and +7. No mouse was bled twice. On day 7, mice were sacrificed and necropsies were performed. Tumors were excised and measured in three dimensions with vernier calipers. Tumor volume was calculated as follows.
(§2) In another illustration of this embodiment, cisplatin was administered twice during the treatment. In additional forty experimental mice at six weeks of age, 2 mm portions of human ovarian cancer xenografts were implanted. Treatment groups were randomly assigned three days after implantation. Group I animals (controls) received 100 μl of PBS three times per week subcutaneously from day −15 to day +13 and 300 μl PBS ip on day 0 and 7. Mice in Group II (EPO group) received EPO subcutaneously at a dose of 20 units in 100 μl of PBS three times per week from day −15 to day +13 and 300 μl of PBS ip on day 0 and 7. Mice in Group III (cisplatin group) received cisplatin ip at a dose of 5 mg/kg in 300 μl of PBS on day 0 and 7, and 100 μl of subcutaneous PBS three times per week from day −15 to day +13. Mice in Group IV (EPO+cisplatin group) received subcutaneous EPO injections as in group 2 three times per week from day −15 to day +13 and ip cisplatin injections as in group 3 on day 0 and 7. Mice were observed until day +15.
Automated hematocrits were obtained as described above on days −15, −7, 0, +7, and +14. The change in hematocrit relative to the initial hematocrit was plotted over time. Serial measurements of tumor nodules were made in two dimensions using vernier calipers starting on day zero. On day zero, tumors had grown to approximately 4 mm×5 mm in size in each group. Tumor volumes were calculated on days 0, +1, +3, +5, +7, +9, +11, +13 and +15 using the formula.
Percent tumor growth was calculated for each index day compared to day 0 and plotted over time. Statistical analysis included Student T tests for the overall tumor growth in the large GFP tumor experiment. The growth curves developed in the smaller subcutaneous tumor group and the curves representing change in the hematocrit over time were analyzed by analysis of variance. Significance was defined by P values less than 0.05.

[3] = Performance status (morbidity/mortality criteria) of treated tumor-bearing mice; type: in vivo, CB 17-SCID/SCID mice; parameters: key to Performance status score, individual mice: A grade of 0 equaled normal health; a grade of 5+ equaled death; conditions: for Performance status score, individual mice: mouse no. 1-10, Table 2 (counts match day +14)
Method: To illustrate this embodiment, performance status of mice from Example 1 receiving the various treatments was evaluated. Performance status was assessed on days 0, +7, and +14 using five objective criteria associated with morbidity and mortality in experimental mice. The five criteria were (1) ruffled fur; (2) weakness/lethargy; (3) 20% weight loss compared to the mean weight of control animals; (4) kyphotic hunched posturing; and (5) death. A grade of 0 equaled normal health and a grade of 5+ equaled death.

[4] = system: human ovarian cancer xenografts; test: Small subcutaneous human ovarian cancer xenograft in SCID mice, cisplatin on day 0 and 7, tumor growth curves; type: in vivo, CB 17-SCID/SCID mice; conditions: subcutaneous tumor nodules; cisplatin 5 mg/kg ip day 0 and 7; EPO 20 units sc three times per week day −15 to +13; to day +15; FIG. 1
Method: as §2, with “Mice in Group IV (EPO+cisplatin group) received subcutaneous EPO injections as in group 2 three times per week from day −15 to day +13 and ip cisplatin injections as in group 3 on day 0 and 7. Mice were observed until day +15.” left out
Automated hematocrits were obtained as described above on days −15, −7, 0, +7, and +14. […] Tumor volumes were calculated on days 0, +1, +3, +5, +7, +9, +11, +13 and +15 using the formula. […]
as §1

[5] = in vivo; cited from earlier work

N.N.[Cl][Pt][Cl] [CISPLATIN, cis-diamine dichloro platinum]
Tumor growth (percent tumor growth, tumor size at necropsy) [1]: significant difference in the tumor growth was observed in the groups treated with and without cisplatin
Hematocrits ([2]; Week 0): 39.8 ± 0.3
Hematocrits ([2]; Week +1): 40.7 ± 0.1
Hematocrits ([2]; Week +2): 33.1 ± 0.3
Hematocrits ([2]; Week −1): 39.8 ± 0.2
Hematocrits ([2]; Week −2 (initial value)): 39.8 ± 0.2
Decrease in the hematocrit ([2]; over time vs initial value, FIG. 2): 20%
Mice with 20% weight loss compared to controls ([3]; day +7, 10 mice per group): 6
Mice with ruffled fur ([3]; day +7, 10 mice per group): all
Mice with signs of weakness/lethargy ([3]; day +7, 10 mice per group): all
Mice with hunched posturing ([3]; day +14, 10 mice per group): 3
Mortalities ([3]; day +14, 10 mice per group): 4
Performance status score, individual mice [3]: + + +; also recorded: + + + +; also recorded: + + + + +

EPO: erythropoietin, hormone regulating red blood cell production; used as hematocrit elevator
Tumor growth (percent tumor growth, tumor size at necropsy) [1]: No difference was observed between the controls and the EPO group
Tumor growth curves (percent tumor growth vs day 0) [4]: no difference was observed between the controls and the EPO group
Hematocrits ([2]; Week 0): 48.9 ± 0.3
Hematocrits ([2]; Week +1): 49.3 ± 0.3
Hematocrits ([2]; Week +2): 53.6 ± 0.4
Hematocrits ([2]; Week −1): 44.9 ± 0.2
Hematocrits ([2]; Week −2 (initial value)): 39.5 ± 0.2
Increase in the hematocrit compared to its initial value ([2]; vs week −2, p<0.01 vs controls, FIG. 2): 25-35%
Performance status scores ([3]; day +7, all mice of the group): zero
Performance status score, individual mice [3]: 0
Performance status score, Total ([3]; sum over 10 mice, Table 2): 0
Half life in the plasma [5]: about 5 hours
